Source: the supplement of paper PMC11208160

assay: recombinant UMI read abundance after kanamycin selection (control-corrected) (log10(CPM+1)); higher = more efficient recombination; extreme values may be limits of the assay; sequences stand for … in AGTGCAGAGAAAATCGGCCAGTTTTCTCTGCCTGCAGTCCGCATGCCGTGGGACCCCTTGGGTTCTAACCTGTTGCCTAGATTTATGCAGCGGACTGCCTTTCTCCCAAAGTGATAAACCGG…AGGTTGGTTTCACT; site = the 11-nt donor
How it was run: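 Pooled Escherichia coli screen of donor and donor-binding-loop pairs for the IS621 bridge recombinase. Each pair sits with a 12-nt UMI on a plasmid carrying a promoterless kanamycin gene. The library was co-electroporated with a target plasmid encoding a fixed target and T7-inducible recombinase, then plated with IPTG (0.07 mM) plus kanamycin, or unselected, each in two replicates. Recombinant UMIs were PCR-amplified across the donor–target junction and sequenced. Counts became CPM, averaged over replicates, scaled by control-derived factors and reported as log10(CPM+1).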
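Further: IS621 bridge recombinase in Escherichia coli cells against a fixed T5 target plasmid.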

Sequence | recombinant UMI read abundance (log10)
GATTGGACATGGACCGGTTTTCCCGGTAATCCGTATTTGAC (site GATCGGACTGT) | 0.745
GATTGGACATGGACCGGTTTTCCCGGTAATCCGTATTTGAC (site GATGGGACTGT) | 0
GATTGGACATGGACCGGTTTTCCCGGTAATCCGTATTTGAC (site GATTAGACTGT) | 0
GATTGGACATGGACCGGTTTTCCCGGTAATCCGTATTTGAC (site GATTCGACTGT) | 0
GATTGGACATGGACCGGTTTTCCCGGTAATCCGTATTTGAC (site GATTGAACTGT) | 0
GATTGGACATGGACCGGTTTTCCCGGTAATCCGTATTTGAC (site GATTGCACTGT) | 0
GATTGGACATGGACCGGTTTTCCCGGTAATCCGTATTTGAC (site GATTGGACTAT) | 0.0111
GATTGGACATGGACCGGTTTTCCCGGTAATCCGTATTTGAC (site GATTGGACTCT) | 0.00872
GATTGGACATGGACCGGTTTTCCCGGTAATCCGTATTTGAC (site GATTGGACTGA) | 0.0103
GATTGGACATGGACCGGTTTTCCCGGTAATCCGTATTTGAC (site GATTGGACTGC) | 0
GATTGGACATGGACCGGTTTTCCCGGTAATCCGTATTTGAC (site GATTGGACTGG) | 0
GATTGGACATGGACCGGTTTTCCCGGTAATCCGTATTTGAC (site GATTGGACTGT) | 0.659
GATTGGACATGGACCGGTTTTCCCGGTAATCCGTATTTGAC (site GATTGGACTTT) | 0.0228
GATTGGACATGGACCGGTTTTCCCGGTAATCCGTATTTGAC (site GATTGGCCTGT) | 0
GATTGGACATGGACCGGTTTTCCCGGTAATCCGTATTTGAC (site GATTGGGCTGT) | 0
GATTGGACATGGACCGGTTTTCCCGGTAATCCGTATTTGAC (site GATTGGTCTGT) | 0
GATTGGACATGGACCGGTTTTCCCGGTAATCCGTATTTGAC (site GATTGTACTGT) | 0
GATTGGACATGGACCGGTTTTCCCGGTAATCCGTATTTGAC (site GATTTGACTGT) | 0
GATTGGACATGGACCGGTTTTCCCGGTAATCCGTATTTGAC (site GCTTGGACTGT) | 0
GATTGGACATGGACCGGTTTTCCCGGTAATCCGTATTTGAC (site GGTTGGACTGT) | 0.928
GATTGGACATGGACCGGTTTTCCCGGTAATCCGTATTTGAC (site GTTTGGACTGT) | 0
GATTGGACATGGACCGGTTTTCCCGGTAATCCGTATTTGAC (site TATTGGACTGT) | 1.83
GATTGGACATGGACCGGTTTTCCCGGTAATCCGTATTTGAG (site GATTGGACTAT) | 0.00853
GATTGGACATGGACCGGTTTTCCCGGTAATCCGTATTTGAG (site GATTGGACTCT) | 1.33
GATTGGACATGGACCGGTTTTCCCGGTAATCCGTATTTGAG (site GATTGGACTGT) | 0

Sequence | recombinant UMI read abundance (log10)
GATTGGACATGGACCGGTTTTCCCGGTAATCCGTATTTGAG (site GATTGGACTTT) | 0.0197
GATTTATCATGGACCGGTTTTCCCGGTAATCCGTATTTGAA (site GATTTATCTTT) | 1.64
GATTTATCATGGACCGGTTTTCCCGGTAATCCGTATTTGGC (site GATTTATCTGC) | 1.38
GATTTGGCATGGACCGGTTTTCCCGGTAATCCGTATTTGTC (site GATTTGGCTGA) | 0
GCAACCTCATGGACCGGTTTTCCCGGTAATCCGTATTTGCC (site GCAACCTCTGG) | 0.0535
GCAACGCCATGGACCGGTTTTCCCGGTAATCCGTATTTGTA (site GCAACGCCTTA) | 0.399
GCAACGCCATGGACCGGTTTTCCCGGTAATCCGTATTTGTA (site GCCACGCCTTA) | 0.026
GCAACGCCATGGACCGGTTTTCCCGGTAATCCGTATTTGTA (site GCGACGCCTTA) | 0.015
GCAACGCCATGGACCGGTTTTCCCGGTAATCCGTATTTGTA (site GCTACGCCTTA) | 0.0211
GCAAGAGCATGGACCGGTTTTCCCGGTAATCCGTATTTGGC (site GCAAGAGCTGC) | 1.82
GCAAGATCATGGACCGGTTTTCCCGGTAATCCGTATTTGGA (site GCAAGATCTTC) | 1.69
GCAAGCTCATGGACCGGTTTTCCCGGTAATCCGTATTTGTG (site GCAAGCTCTCA) | 2.55
GCACGACCATGGACCGGTTTTCCCGGTAATCCGTATTTGCA (site GCACGACCTTG) | 0
GCACGTTCATGGACCGGTTTTCCCGGTAATCCGTATTTGGC (site GCACGTTCTGC) | 2.74
GCACTTGCATGGACCGGTTTTCCCGGTAATCCGTATTTGGC (site GCACTTGCTGC) | 2.1
GCAGAATCATGGACCGGTTTTCCCGGTAATCCGTATTTGCA (site ACAGTATCTTG) | 1.67
GCAGAATCATGGACCGGTTTTCCCGGTAATCCGTATTTGCA (site GCAGAATCTTG) | 2.13
GCAGACACATGGACCGGTTTTCCCGGTAATCCGTATTTGAT (site GCAGACACTAT) | 1.89
GCAGACCCATGGACCGGTTTTCCCGGTAATCCGTATTTGAT (site GCAGACCCTAT) | 0.819
GCAGACCCATGGACCGGTTTTCCCGGTAATCCGTATTTGGG (site GCAGACCCTCC) | 0.0178
GCAGAGACATGGACCGGTTTTCCCGGTAATCCGTATTTGCG (site ACAGAGACTCG) | 2.51
GCAGAGACATGGACCGGTTTTCCCGGTAATCCGTATTTGCG (site CCAGAGACTCG) | 2.58
GCAGAGACATGGACCGGTTTTCCCGGTAATCCGTATTTGCG (site GCAGAGACTCG) | 2.45
GCAGAGACATGGACCGGTTTTCCCGGTAATCCGTATTTGCG (site TCAGAGACTCG) | 2.34
GCAGCCCCATGGACCGGTTTTCCCGGTAATCCGTATTTGCT (site GCAGCCCCTAG) | 2.32

Sequence | recombinant UMI read abundance (log10)
GCAGCGGCATGGACCGGTTTTCCCGGTAATCCGTATTTGCC (site GCAGCGGCTGG) | 1.22
GCAGGAGCATGGACCGGTTTTCCCGGTAATCCGTATTTGGA (site GCAGGAGCTTC) | 1.41
GCAGGCACATGGACCGGTTTTCCCGGTAATCCGTATTTGCA (site GCAGGCACTTG) | 2.39
GCAGGCGCATGGACCGGTTTTCCCGGTAATCCGTATTTGCG (site GCAGGCGCTCG) | 2.03
GCAGGTGCATGGACCGGTTTTCCCGGTAATCCGTATTTGGC (site GCAGGTGCTGC) | 1.53
GCAGTATCATGGACCGGTTTTCCCGGTAATCCGTATTTGCT (site ACAGTATCTTG) | 0
GCAGTATCATGGACCGGTTTTCCCGGTAATCCGTATTTGCT (site GCAGTATCTAG) | 2.7
GCAGTGTCATGGACCGGTTTTCCCGGTAATCCGTATTTGAT (site GCAGTGTCTAT) | 2.82
GCAGTTACATGGACCGGTTTTCCCGGTAATCCGTATTTGGA (site GCAGTTACTTC) | 1.1
GCATAGACATGGACCGGTTTTCCCGGTAATCCGTATTTGCC (site GAATAGACTGG) | 0.0508
GCATAGACATGGACCGGTTTTCCCGGTAATCCGTATTTGCC (site GCATAGACTGG) | 1.74
GCATAGACATGGACCGGTTTTCCCGGTAATCCGTATTTGCC (site GGATAGACTGG) | 0
GCATAGACATGGACCGGTTTTCCCGGTAATCCGTATTTGCC (site GTATAGACTGG) | 0
GCATGGTCATGGACCGGTTTTCCCGGTAATCCGTATTTGGA (site GCATGGTCTTC) | 1.31
GCATGTGCATGGACCGGTTTTCCCGGTAATCCGTATTTGGT (site GCATGTGCTAC) | 1.79
GCATTGACATGGACCGGTTTTCCCGGTAATCCGTATTTGTT (site GCATTGACTAA) | 1.4
GCCAACTCATGGACCGGTTTTCCCGGTAATCCGTATTTGTT (site GCCAACTCTAA) | 1.65
GCCAAGCCATGGACCGGTTTTCCCGGTAATCCGTATTTGCC (site GCCAAGCCTGG) | 0
GCCAAGTCATGGACCGGTTTTCCCGGTAATCCGTATTTGGG (site GCCAAGTCTCC) | 0.538
GCCAATTCATGGACCGGTTTTCCCGGTAATCCGTATTTGCC (site ACCAATTCTGG) | 0
GCCAATTCATGGACCGGTTTTCCCGGTAATCCGTATTTGCC (site CCCAATTCTGG) | 0
GCCAATTCATGGACCGGTTTTCCCGGTAATCCGTATTTGCC (site GCCAATTCTGG) | 0.426
GCCAATTCATGGACCGGTTTTCCCGGTAATCCGTATTTGCC (site TCCAATTCTGG) | 0
GCCACACCATGGACCGGTTTTCCCGGTAATCCGTATTTGTA (site GCCACACCTTA) | 0.0107
GCCACACCATGGACCGGTTTTCCCGGTAATCCGTATTTGTA (site GCCACCCCTTA) | 0.00331
